Source: article PMC11031590, “Narazaciclib, a novel multi-kinase inhibitor with potent activity against CSF1R, FLT3 and CDK6, shows strong anti-AML activity in defined preclinical models” (Scientific Reports, 2024)
Values joined by “and” are separate entries in the source; they are usually repeats but may differ in a detail not shown here. Identical values can stand only once. Like-named read-outs stand apart in the source and are kept apart here.

Assays:
Ba/F3-KRAS-G12C = Ba/F3-KRAS-G12C proliferation assay (CTG); format: cell-based; conditions: Mus musculus
Protocol: (§1) The recombinant Ba/F3 cell lines overexpressing human CSF1R, or human RBM6-CSF1R, or human ETV6-CSF1R were generated using a retrovirus vector (Kyinno Co., Ltd. Beijing). The recombinant Ba/F3 lines overexpressing human Kras G12C orEGFR-L718Q mutants, and different mutant variants of FLT3 were also similarly created as well. A standard proliferation assay via CTG readout was performed according to the vendor’s instructions (KYinno Biotechnology Co., Ltd. Beijing).

CDK6-CyclinD1 = CDK6-CyclinD1 (Homo sapiens, UniProt Q00534); experiment: CDK6 TR-FRET kinase assay; format: biochemical; conditions: ATP 250 µM; read-out: IC50 CDK6 enzymatic activity
Protocol: For CDK6 inhibition, a Time-resolved fluorescence energy transfer (TR-FRET) kinase assay was performed according to the manufacturer’s instructions. Briefly, narazaciclib at various concentrations was pre-incubated with CDK6-CyclinD1 in kinase buffer at 25 °C for 1 h and then incubated with 12.5 nM Ulight-4E-BP1 peptide and 250 µM ATP at 25 °C for 2 h. The reaction was stopped by incubating with EDTA-containing stop buffer at 25 °C for 5 min. Subsequently, the mixture was incubated with detection buffer at 25 °C for 1 h. Finally, the signal was read on a Nivo Reader in TR-FRET mode (excitation at 320 nm and emission at 665 nm and 615 nm). The signal of the blank control was subtracted from the maximum signal (DMSO without compound) as well as from the value of narazaciclib at each concentration. This corrected emission ratio (ER) was used to calculate the percentage of enzyme activity recovery: enzyme activity recovery (%) = [(narazaciclib ER – blank control ER)[…]] × 100. The results were fitted to a dose–response curve by a 4-parameter log-logistic model: Inhibition%=Bottom+Top-Bottom/1+10^logEC50-x∗HillSlope

Ba/F3-FLT3-ITD (D835V) = Ba/F3-FLT3-ITD (D835V) proliferation assay; format: cell-based, mouse
Protocol: as §1

[1] = test system: MV-4-11 subcutaneous xenograft; experiment: MV-4-11 subcutaneous xenograft model; format: in vivo, NOD/scid mice; conditions: narazaciclib 100 mg/kg intraperitoneally twice per week for 3 weeks
Excerpt: The subcutaneous cell line xenograft (CDX) models and systemic patient-derived xenograft (PDX) models of AML have been extensively described before. For the subcutaneous MV-4-11 CDX model, 5 × 10^6 MV-4-11 tumor cells harvested from exponential growth phase were mixed with Matrigel (1:1) and then inoculated into the right front flank region of 6- to 7-week-old female NOD/scid mice for tumor development. MV-4-11 tumor-bearing mice were randomized into 5 groups (N = 8) when their tumor volume reached approximately 100 mm^3 and received their designated treatments following randomization. Narazaciclib was administrated intraperitoneally at 100 mg/kg twice per week for 3 weeks, while Azacitidine was administrated intraperitoneally at 3 mg/kg twice per week for 3 weeks. For the subcutaneous Ba/F3-ETV6-CSF1R CDX model, 1 × 10^6 Ba/F3-ETV6-CSF1R tumor cells harvested from exponential growth phase were mixed with Matrigel (1:1) and then inoculated into the right front flank region of 6- to 8-week-old female NOD/scid mice for tumor development. Ba/F3-ETV6-CSF1R tumor-bearing mice were randomized into 5 groups (N = 6) when their tumor volume reached approximately 100 mm^3 and received their designated treatments following randomization. […] Tumor volume and body weight were measured at different time points and tumor growth inhibition (TGI) was used as index to determine the therapeutic efficacy.

parental Ba/F3 line = experiment: Parental Ba/F3 proliferation assay (CTG); format: cell-based; conditions: Mus musculus, BaF3
Protocol: as §1

FLT3 = FLT3 (Homo sapiens, UniProt P36888); experiment: FLT3 kinase inhibition assay (ADP-Glo); format: biochemical; conditions: ATP 10 μM; read-out: IC50 FLT3 enzymatic activity
Protocol: Different assays were used to measure the inhibitory potencies of narazaciclib on FLT3, CSF1R and CDK6. For FLT3 inhibition, the enzyme, substrate (final concentration at 15 μg/μL), ATP (final concentration at 10 μM) and inhibitors were diluted and mixed in kinase buffer (40 mM Tris, pH 7.5; 20 mM MgCl2; 0.1 mg/ml BSA; 50 μM DTT). The mixtures were incubated at 25 °C for 120 min. Then, ADP‐Glo™ Reagent (Promega) was added to the mix and incubated at 25 °C for 40 min followed by the addition of kinase detection reagent and another 30 min at 25 °C. Luminescence was recorded with an integration time of 0.5 s.

Ba/F3-FLT3-ITD (D835F) = Ba/F3-FLT3-ITD (D835F) proliferation assay; format: cell-based, mouse
Protocol: as §1

M2 primary macrophages = experiment: Primary macrophage proliferation assay; format: cell-based; conditions: Homo sapiens
Protocol: Human primary monocytes were isolated with an EasySep™ monocyte isolation kit (Stem Cell) from cryopreserved human PBMCs. […] Narazaciclib was serially diluted with culture medium to 9 final concentrations from 0.004 µM to 24 µM. The differentiated macrophages were incubated for 7 days at 37 °C followed by incubation with Cell Counting-Lite2.0 reagent (Vazyme) for 5 min on a shaker. Luminescence was recorded […]. The proliferation inhibition IC50 (half maximal inhibition concentration) of narazaciclib was determined by fitting the dose–response data to a four-parameter stimulation model.

FLT3, sequence (P36888 27-993): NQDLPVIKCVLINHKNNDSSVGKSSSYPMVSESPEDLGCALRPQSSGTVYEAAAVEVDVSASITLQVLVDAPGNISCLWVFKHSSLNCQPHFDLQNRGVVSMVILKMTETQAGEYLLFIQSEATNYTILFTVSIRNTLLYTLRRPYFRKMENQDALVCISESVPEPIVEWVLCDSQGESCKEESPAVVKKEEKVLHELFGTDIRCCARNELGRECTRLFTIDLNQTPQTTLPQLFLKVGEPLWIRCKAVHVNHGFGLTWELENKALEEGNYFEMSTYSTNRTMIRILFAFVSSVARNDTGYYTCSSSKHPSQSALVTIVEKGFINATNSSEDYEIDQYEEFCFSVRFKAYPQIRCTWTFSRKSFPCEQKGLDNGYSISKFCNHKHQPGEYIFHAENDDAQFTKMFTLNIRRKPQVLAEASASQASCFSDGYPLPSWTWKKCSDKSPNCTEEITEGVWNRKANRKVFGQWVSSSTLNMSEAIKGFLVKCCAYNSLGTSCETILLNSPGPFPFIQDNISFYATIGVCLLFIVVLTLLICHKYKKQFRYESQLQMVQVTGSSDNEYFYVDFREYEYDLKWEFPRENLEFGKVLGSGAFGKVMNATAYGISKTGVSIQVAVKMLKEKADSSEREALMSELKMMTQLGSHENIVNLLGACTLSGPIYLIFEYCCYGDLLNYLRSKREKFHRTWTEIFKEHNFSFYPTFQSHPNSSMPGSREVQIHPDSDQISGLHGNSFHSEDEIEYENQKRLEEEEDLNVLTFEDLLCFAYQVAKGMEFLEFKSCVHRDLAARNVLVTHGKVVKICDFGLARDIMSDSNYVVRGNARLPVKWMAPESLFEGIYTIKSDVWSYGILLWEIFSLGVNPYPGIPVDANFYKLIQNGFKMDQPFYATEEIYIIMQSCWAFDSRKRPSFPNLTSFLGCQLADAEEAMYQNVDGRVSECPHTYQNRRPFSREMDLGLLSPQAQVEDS
CDK6-CyclinD1, sequence (Q00534 whole entry): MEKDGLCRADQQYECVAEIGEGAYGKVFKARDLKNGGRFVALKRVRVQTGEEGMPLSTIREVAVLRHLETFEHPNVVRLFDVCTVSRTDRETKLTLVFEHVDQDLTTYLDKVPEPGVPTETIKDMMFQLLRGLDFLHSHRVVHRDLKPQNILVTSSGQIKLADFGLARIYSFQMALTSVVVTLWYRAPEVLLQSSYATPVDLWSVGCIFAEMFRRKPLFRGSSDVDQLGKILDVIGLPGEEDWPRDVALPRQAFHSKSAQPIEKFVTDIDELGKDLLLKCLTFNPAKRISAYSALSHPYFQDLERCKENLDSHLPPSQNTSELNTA
CDK6-CyclinD1, sequence (P24385 whole entry partner): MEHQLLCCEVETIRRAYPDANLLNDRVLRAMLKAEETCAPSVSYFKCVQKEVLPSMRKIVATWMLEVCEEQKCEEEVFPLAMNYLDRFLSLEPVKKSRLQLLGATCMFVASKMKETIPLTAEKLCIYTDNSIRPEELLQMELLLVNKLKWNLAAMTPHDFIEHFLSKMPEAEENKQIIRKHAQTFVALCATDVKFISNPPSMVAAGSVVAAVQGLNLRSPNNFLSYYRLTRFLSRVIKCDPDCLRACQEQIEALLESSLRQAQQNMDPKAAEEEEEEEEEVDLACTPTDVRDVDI

- IC50 (Ba/F3-KRAS-G12C): 490 nM
- IC50 (CDK6-CyclinD1): 0.53 nM
- % of Ba/F3-FLT3 (IC50) (Ba/F3-FLT3-ITD (D835V)): 9.84%
- IC50 (Ba/F3-FLT3-ITD (D835V); Mus musculus): 29.6 nM
- IC50 (FLT3): ~19.8 nM and 19.8 nM
- % of Ba/F3-FLT3 (IC50) (Ba/F3-FLT3-ITD (D835F)): 23.10%
- IC50 (Ba/F3-FLT3-ITD (D835F); Mus musculus): 69.6 nM
Structure (SMILES): CN1CCN(c2ccc(Nc3ncc4cc(C#N)c(=O)n(C5CCCC5)c4n3)cc2)CC1 [Narazaciclib, narazaciclib]
- anti-AML activity (tumor growth) [1]: significant anti-AML activity
- IC50 (parental Ba/F3 line): 1350 nM
- IC50 (M2 primary macrophages; M2-macrophages, read-out: IC50 M2-macrophage proliferation): 72.5 nM
- IC50 (M2 primary macrophages; M-CSF : GM-CSF Ratio 0:100, read-out: IC50 M2-Macrophages Growth Inhibition): 3650 nM
- IC50 (M2 primary macrophages; M-CSF : GM-CSF Ratio 25:75, read-out: IC50 M2-Macrophages Growth Inhibition): 3520 nM
- IC50 (M2 primary macrophages; M-CSF : GM-CSF Ratio 50:50, read-out: IC50 M2-Macrophages Growth Inhibition): 3970 nM
- IC50 (M2 primary macrophages; M-CSF : GM-CSF Ratio 75:25, read-out: IC50 M2-Macrophages Growth Inhibition): 3700 nM
